The values that follow come from BindingDB's records for doi:10.1016/j.bioorg.2015.02.008 (University of Strasburg, 2015).

A word on the pIC50: it is −log10 of the IC50, conventionally taken in molar units.

pIC50: −log10 of the molar value.

For this test, the target named is T1, 1-deoxy-D-xylulose 5-phosphate reductoisomerase (Escherichia coli (strain K12), UniProt P45568).
T1 sequence (P45568 whole entry): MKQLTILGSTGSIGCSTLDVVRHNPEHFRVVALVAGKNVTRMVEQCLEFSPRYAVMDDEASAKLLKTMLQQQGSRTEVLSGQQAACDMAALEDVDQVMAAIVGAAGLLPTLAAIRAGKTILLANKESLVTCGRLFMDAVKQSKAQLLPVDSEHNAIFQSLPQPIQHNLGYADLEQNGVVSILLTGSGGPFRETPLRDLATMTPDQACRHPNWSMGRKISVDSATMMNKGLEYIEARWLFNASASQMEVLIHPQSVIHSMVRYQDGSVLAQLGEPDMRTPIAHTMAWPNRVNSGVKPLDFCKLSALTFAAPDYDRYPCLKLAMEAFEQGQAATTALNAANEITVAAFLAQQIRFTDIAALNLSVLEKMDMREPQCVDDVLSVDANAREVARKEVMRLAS
Nature of the test: DXR Inhibition Assay. Here is the method:
H-DXR was pre-incubated during 2 min in the presence of the inhibitors at different concentrations and DXP (480 µM). NADPH (160 µM final concentration) was then added to measure the residual activity. The flavonoids are poorly soluble in water. Flavonoids solutions at different concentrations were prepared in DMSO by serial dilutions from 100 mM stock solutions. […] The inhibition mechanism of myricetin was studied by preincubating H-DXR with DXP at varied concentrations (96 480 µM) and fixed concentrations of myricetin (0.5, 1 and 2 µM). The enzymatic reaction was initiated by NADPH (final concentration160 µM). Fosmidomycin was used as a positive reference.

As for `O=c1c(O)c(-c2cc(O)c(O)c(O)c2)oc2cc(O)cc(O)c12`, the pIC50 is 5.82. The figure for `O=c1c(O)c(-c2ccc(O)c(O)c2)oc2cc(O)cc(O)c12` [2-(3,4-dihydroxyphenyl)-3,5,7-trihydroxy-chromone;hydrate] is 5.72. Regarding `O=c1cc(-c2ccc(O)c(O)c2)oc2cc(O)cc(O)c12` [2-(3,4-dihydroxyphenyl)-5,7-dihydroxy-4H-chromen-4-one], the pIC50 was 5.47. The figure for `O=c1cc(-c2ccccc2)oc2cc(O)c(O)c(O)c12` is 5.66; for `O=c1c(O)c(-c2ccc(O)c(O)c2)oc2cc(O)ccc12` [2-(3,4-dihydroxyphenyl)-3,7-dihydroxy-chromen-4-one] it is 5.46.
